Data reported in patent publication US5789434A, “Derivatives of substituted 4-biarylbutyric acid as matrix metalloprotease inhibitors” (priority 1995, dated 1998).

Key:
Format in all cases: biochemical
MMP-3 [1] = biological target: T1, MMP-3 (Homo sapiens, UniProt P08254); experiment: Automated MMP Profiling Assay, MMP-3 fluorogenic; settings: 96-well automated, P218
T1 construct: Truncated Prostromelysin-257 was expressed in a soluble form in E.coli; made in house; host or cells: E. coli
Excerpt: This assay with each invention compound was run with the three enzymes MMP-3, MMP-9 and MMP-2 in parallel as adapted for a 96-well microtitre plate using a Hamilton A® workstation.

MMP-9 [2] = biological target: T2, MMP-9 (Homo sapiens, UniProt P14780); experiment: Automated MMP Profiling Assay, MMP-9 fluorogenic; settings: 96-well automated, P218
T2 construct: from tissue; host or cells: human polymorphonuclear leukocytes (PMN) from whole blood (New York Blood Center), PMA-stimulated supernatant
Protocol: Briefly, polymorphonuclear leukocytes (PMN) preparations were isolated as described above from 3 or more units of freshly drawn whole blood obtained from the New York Blood Center (New York, N.Y.). Cells were resuspended in phosphate buffered saline (PBS) containing 100 ng/ml phorbol myristate acetate (PMA) in the presence of 50 mM diisopropylfluorophospate (DFP), 1 μg/ml leupeptin and aprotinin, and 1 mg/ml catalase for 1 hr at 37° C. Supernatants were collected by centrifugation (300×g) and the samples were frozen at -70° C. All chromatographic methods were performed at 4° C. Thawed samples were concentrated 5-fold using an Amicon chamber equipped with a YM-10 membrane. The concentrate was pressure dialyzed against 0.02M Tris-HCl, 0.1M NaCl, 1 mM CaCl2, 1 μM ZnCl2, 0.001% Brij-35, 0.02% sodium azide (NaN3), pH 7.5 and applied to DEAE ion exchange chromatography resin which was previously equilibrated with the same buffer at a flow rate of 0.4 ml/min. The column was extensively washed with the same buffer and gelatinase was eluted as 4 ml fractions from the column with 0.02M Tris-HCl, 0.5M NaCl, 1 mM CaCl2, 1 μM ZnCl2, 0.001% Brij-35, 0.02% NaN3, pH 7.5. Gelatinase containing fractions were observed by gelatin zymography (see below), loaded onto a gelatin agarose affinity resin and washed with the same buffer. Gelatinase activity was eluted at a flow rate of 1 ml/min from the column as 1 ml fractions with 0.02M Tris-HCl, 1M NaCl, 1 mM CaCl2, 1 μM ZnCl2, 0.001% Brij-35, 0.02% NaN3, pH 7.5 containing 10% dimethyl sulfoxide (DMSO). The fractions containing gelatinase activity were pooled and dialyzed against 0.005M Tris-HCl, 5 mM NaCl, 0.5 mM CaCl2, 0.1 μM ZnCl2, 0.001% Brij-35, pH 7.4. The protein content associated with material was determined with a micro-BCA assay (Pierce, Rockford, Ill.), lyophilized and reconstituted to a desired working concentration (100 μg/ml).
This assay was run with a protocol analogous to that reported for MMP-3 inhibition using the synthetic peptide P218 and each of the three enzymes and measuring quenched fluorescence. This assay with each invention compound was run with the three enzymes MMP-3, MMP-9 and MMP-2 in parallel as adapted for a 96-well microtitre plate using a Hamilton A® workstation.

MMP-2 = biological target: T3, MMP-2 (Homo sapiens, UniProt P08253); experiment: Automated MMP Profiling Assay, MMP-2 fluorogenic; settings: 96-well automated, P218; read-out: MMP-2 Fluorogenic IC50 (profiling)
T3 sequence (P08253 110-660): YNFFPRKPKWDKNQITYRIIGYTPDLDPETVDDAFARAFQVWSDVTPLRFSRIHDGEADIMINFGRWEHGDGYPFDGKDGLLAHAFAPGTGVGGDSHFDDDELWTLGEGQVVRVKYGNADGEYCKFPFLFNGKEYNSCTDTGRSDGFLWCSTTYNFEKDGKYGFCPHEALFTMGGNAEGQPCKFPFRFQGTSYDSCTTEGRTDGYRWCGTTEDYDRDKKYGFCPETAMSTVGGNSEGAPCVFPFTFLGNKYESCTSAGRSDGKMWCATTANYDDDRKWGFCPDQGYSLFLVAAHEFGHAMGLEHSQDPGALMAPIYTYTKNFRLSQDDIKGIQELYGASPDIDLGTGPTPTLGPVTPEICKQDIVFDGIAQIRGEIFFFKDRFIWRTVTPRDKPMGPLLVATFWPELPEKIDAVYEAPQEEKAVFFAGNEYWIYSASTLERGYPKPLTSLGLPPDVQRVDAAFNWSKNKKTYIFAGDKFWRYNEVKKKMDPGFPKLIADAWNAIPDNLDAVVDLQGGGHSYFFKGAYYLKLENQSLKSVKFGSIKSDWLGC

MMP-9 [3] = biological target: T2, MMP-9; experiment: Thiopeptilide MMP-9 Inhibition Assay; settings: for IC50: pH 6.5, x (n) = average of n determinations, read-out: MMP-9: Thiopep. IC50; for inhibition at 5 µM: read-out: MMP-9: Thiopep. % inhibition
MMP-3 [4] = biological target: T1, MMP-3; experiment: Primary Thiopeptilide MMP-3 Inhibition Assay; settings: for IC50: pH 6.5, 13 nM stromelysin, x (n) = average of n determinations, read-out: MMP-3 Thiopep. IC50; for inhibition at 5 µM: read-out: MMP-3 Thiopep. % inhibition

T2 sequence (P14780 107-707 limits assumed): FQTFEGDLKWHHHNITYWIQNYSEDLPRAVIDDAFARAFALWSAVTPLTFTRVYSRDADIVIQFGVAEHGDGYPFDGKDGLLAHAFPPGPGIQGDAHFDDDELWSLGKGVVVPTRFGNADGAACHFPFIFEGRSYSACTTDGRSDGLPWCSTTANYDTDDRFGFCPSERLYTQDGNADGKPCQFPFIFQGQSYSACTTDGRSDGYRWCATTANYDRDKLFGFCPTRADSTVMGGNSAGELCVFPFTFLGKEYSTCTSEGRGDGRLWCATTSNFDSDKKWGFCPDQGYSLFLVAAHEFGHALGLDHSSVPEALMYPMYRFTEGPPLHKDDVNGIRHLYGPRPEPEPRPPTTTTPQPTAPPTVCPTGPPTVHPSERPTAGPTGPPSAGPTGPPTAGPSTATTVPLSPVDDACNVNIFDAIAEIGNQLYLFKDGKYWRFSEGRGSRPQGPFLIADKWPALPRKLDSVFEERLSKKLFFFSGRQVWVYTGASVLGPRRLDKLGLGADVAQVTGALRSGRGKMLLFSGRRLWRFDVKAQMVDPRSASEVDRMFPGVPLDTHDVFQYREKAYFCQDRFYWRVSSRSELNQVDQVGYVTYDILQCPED
T1 sequence (P08254 100-274 limits assumed): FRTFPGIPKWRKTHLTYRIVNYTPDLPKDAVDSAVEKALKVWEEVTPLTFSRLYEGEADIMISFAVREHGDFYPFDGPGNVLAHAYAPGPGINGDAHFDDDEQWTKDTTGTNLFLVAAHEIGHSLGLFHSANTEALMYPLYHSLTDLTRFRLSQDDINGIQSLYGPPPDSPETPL

IC50 (MMP-9 [3]) | IC50 (MMP-3 [4]) | Structure (SMILES) | IC50 (MMP-3 [1]) | IC50 (MMP-9 [2]) | further results
 |  | Cc1ccccc1C(=O)OC[C@@H]1CC[C@H](C(=O)c2ccc(-c3ccc(Cl)cc3)cc2)[C@H]1C(=O)O (relative stereo) [Example 378, Benzoic acid, 2-methyl-, [2-carboxy-3-[(4'-chloro[1,1'-biphenyl]-4-yl)carbonyl]cyclopentyl]methyl ester, (1α,2β,3α)-] | 77 nM | 83 nM | IC50 (MMP-2): 43 nM
 |  | O=C(O)[C@H]1[C@H](CN2C(=O)c3cc(Cl)c([N+](=O)[O-])cc3C2=O)CC[C@@H]1C(=O)c1ccc(-c2ccc(Cl)cc2)cc1 (relative stereo) [Example 390, Cyclopentanecarboxylic acid, 2-[(4'-chloro[1,1'-biphenyl]-4-yl)carbonyl]-5-[(5-chloro-1,3-dihydro-6-nitro-1,3-dioxo-2H-isoindol-2-yl)methyl]-, (1α,2β,5β)-] | 10 nM | 1.2 nM | IC50 (MMP-2): 15 nM
 |  | O=C(CC(CCN1C(=O)c2cc(Cl)c(Cl)cc2C1=O)C(=O)O)c1ccc(-c2ccc(Cl)cc2)cc1 (stereo not drawn) [Example 415, 2H-Isoindole-2-butanoic acid, 5,6-dichloro-α-[2-(4'-chloro[1,1'-biphenyl]-4-yl)-2-oxoethyl]-1,3-dihydro-1,3-dioxo-] | 12 nM | 1.2 nM | IC50 (MMP-2): 34 nM
 |  | O=C(CC(CCN1C(=O)c2ccc(OCc3ccccc3)cc2C1=O)C(=O)O)c1ccc(-c2ccc(Cl)cc2)cc1 (stereo not drawn) [Example 405, 2H-Isoindole-2-butanoic acid, α-[2-(4'-chloro[1,1'-biphenyl]-4-yl)-2-oxoethyl]-1,3-dihydro-1,3-dioxo-5-(phenylmethoxy)-] | 75 nM | 5.8 nM | IC50 (MMP-2): 80 nM
 |  | CCCCCOc1ccc(-c2ccc(C(=O)[C@H]3CC[C@@H](Sc4ccccc4)[C@@H]3C(=O)O)cc2)cc1 (single isomer, unassigned) [Example 319, Cyclopentanecarboxylic acid, 2-[[4'-(pentyloxy)[1,1'-biphenyl]-4-yl]carbonyl]-5-(phenylthio)-, (1α,2β,5β)-(+)-] | 30 nM | 197 nM | IC50 (MMP-2): 4.1 nM
 |  | O=C(CC(CCN1C(=O)[C@H]2CC=CC[C@H]2C1=O)C(=O)O)c1ccc(-c2ccc(Cl)cc2)cc1 (relative stereo) [Example 413, 2H-Isoindole-2-butanoic acid, α-[2-(4'-chloro[1,1'-biphenyl]-4-yl)-2-oxoethyl]-1,3,3a,4,7,7a-hexahydro-1,3-dioxo-, cis-] | 39 nM | 109 nM | 
 |  | Nc1cccc2c1C(=O)N(C[C@@H]1CC[C@H](C(=O)c3ccc(-c4ccc(Cl)cc4)cc3)[C@H]1C(=O)O)C2=O (relative stereo) [Example 392, Cyclopentanecarboxylic acid, 2-[(4-amino-1,3-dihydro-1,3-dioxo-2H-isoindol-2-yl)methyl]-5-[(4'-chloro[1,1'-biphenyl]-4-yl)carbonyl]-, (1α,2β,5β)-] | 2.5 nM |  | 
2900 nM | 293 nM | O=C(CC(SCc1ccccc1)C(=O)O)c1ccc(-c2ccc(Cl)cc2)cc1 (stereo not drawn) [Example 252, [1,1'-Biphenyl]-4-butanoic acid, 4'-chloro-γ-oxo-α-[(phenylmethyl)thio]-] |  |  | 
2600 nM | 112 nM | O=C(CC(CCc1ccccc1)C(=O)O)c1ccc(-c2ccc(Cl)cc2)cc1 (stereo not drawn) [Example 132, [1,1'-Biphenyl]-4-butanoic acid, 4'-chloro-γ-oxo-α-(2-phenylethyl)-] |  |  | 
 |  | CC(C)CC(CC(=O)c1ccc(-c2ccc(F)cc2F)cc1)C(=O)O (stereo not drawn) [Example 20, [1,1'-Biphenyl]-4-butanoic acid, 2',4'-difluoro-α-(2-methylpropyl)-γ-oxo-] |  |  | inhibition at 5 µM (MMP-3 [4]): 32%; inhibition at 5 µM (MMP-9 [3]): 34%
76 nM | 95 nM | O=C(CC(CCCN1C(=O)c2ccccc2C1=O)C(=O)O)c1ccc(-c2ccc(Cl)cc2)cc1 (stereo not drawn) [Example 262, 2H-Isoindole-2-pentanoic acid, α-[2-(4'-chloro[1,1'-biphenyl]-4-yl)-2-oxoethyl]-1,3-dihydro-1,3-dioxo-] |  |  | 
 |  | O=C(O)CCC(=O)c1ccc(-c2ccc(F)cc2F)cc1 [Example 11, [1,1'-Biphenyl]-4-butanoic acid, 2',4'-difluoro-γ-oxo-, reference compound] |  |  | inhibition at 5 µM (MMP-3 [4]): 14%; inhibition at 5 µM (MMP-9 [3]): 0%
800 nM | 950 nM | O=C(CC(CCCc1ccccc1)C(=O)O)c1ccc(-c2ccc(CO)cc2)cc1 (stereo not drawn) [Example 53, [1,1'-Biphenyl]-4-butanoic acid, 4'-(hydroxymethyl)-γ-oxo-α-(3-phenylpropyl)-] |  |  | 
1500 nM | 757 nM | COc1ccc(CCC(CC(=O)c2ccc(-c3ccc(Cl)cc3)cc2)C(=O)O)cc1 (stereo not drawn) [Example 187, [1,1'-Biphenyl]-4-butanoic acid, 4'-chloro-α-[2-(4-methoxyphenyl)ethyl]-γ-oxo-] |  |  | 
3100 nM | 620 nM | CCc1ccc(-c2ccc(C(=O)CC(CC(C)C)C(=O)O)cc2)cc1 (stereo not drawn) [Example 16, [1,1'-Biphenyl]-4-butanoic acid, 4'-ethyl-α-(2-methylpropyl)-γ-oxo-] |  |  | 
2200 nM | 170 nM | O=C(CC(CSC1CCCCC1)C(=O)O)c1ccc(-c2ccc(Cl)cc2)cc1 (stereo not drawn) [Example 214, [1,1'-Biphenyl]-4-butanoic acid, 4'-chloro-α-[(cyclohexylthio)methyl]-γ-oxo-] |  |  | 
 |  | C=C(CC(=O)c1ccc(-c2ccccc2Cl)cc1)C(=O)O [Example 24, [1,1'-Biphenyl]-4-butanoic acid, 2'-chloro-α-methylene-γ-oxo-, reference compound] |  |  | inhibition at 5 µM (MMP-3 [4]): 40%; inhibition at 5 µM (MMP-9 [3]): 0%
710 nM | 270 nM | O=C(CC(C/C=C/c1ccccc1)C(=O)O)c1ccc(-c2ccc(Cl)cc2)cc1 (stereo not drawn) [Example 183, [1,1'-Biphenyl]-4-butanoic acid, 4'-chloro-γ-oxo-α-(3-phenyl-2-propenyl)-, (E)-] |  |  | 
 |  | O=C(O)CCC(=O)c1ccc(-c2ccccc2Cl)cc1 [Example 10, [1,1'-Biphenyl]-4-butanoic acid, 2'-chloro-γ-oxo-, reference compound] |  |  | inhibition at 5 µM (MMP-3 [4]): 1%; inhibition at 5 µM (MMP-9 [3]): 0%
 |  | CC(CC(=O)O)CC(=O)c1ccc(-c2ccc(Cl)cc2)cc1 (stereo not drawn) [Example 332, [1,1'-Biphenyl]-4-pentanoic acid, 4'-chloro-β-methyl-δ-oxo-, reference compound] |  |  | inhibition at 5 µM (MMP-3 [4]): 37%; inhibition at 5 µM (MMP-9 [3]): 41%
 |  | C=C(CC(=O)c1ccc(C)cc1)C(=O)O [Example 28, Benzenebutanoic acid, 4-methyl-α-methylene-γ-oxo-, reference compound] |  |  | inhibition at 5 µM (MMP-3 [4]): 14%; inhibition at 5 µM (MMP-9 [3]): 0%

Structure (SMILES) | IC50 (MMP-9 [3]) | IC50 (MMP-3 [4]) | IC50 (MMP-3 [1]) | IC50 (MMP-9 [2]) | further results
O=C(CC(CSc1ccccc1)C(=O)O)c1ccc(-c2ccc(Cl)cc2)cc1 (stereo not shown) [Example 196, 4-[4-(4-chlorophenyl)phenyl]-4-oxo-2-(phenylthiomethyl)butanoic acid] | 438 nM |  |  | 955 nM | IC50 (MMP-2): 37 nM
